Patent publication US11648258B2, “Method and compounds for inhibiting the MCM complex and their application in cancer treatment” (priority 2012, dated 2023)
pIC50: −log10 of the molar value.

Key:
[1] = tested on: cancer cells (HeLa, HepG2); test: Flow cytometry / Annexin V staining (cell cycle, apoptosis) in cancer cells; assay type: cell-based, human
Description: Both floating and attached cells were collected and washed once with PBS. Cells were fixed in 70% ethanol for 1 hr to overnight at −20° C., washed thoroughly with PBS, and then stained in 50 μg/ml RNase A, 0.1% Triton X-100, 0.1 mM EDTA (pH 7.4), and 50 μg/ml propidium iodide for 30 min at 4° C. Samples were analyzed with the FACSort instrument (Becton Dickinson).
Moreover, inhibition of DNA replication and subsequent induction of apoptosis by 17beta-Deacetyltanghinin could be shown by flow cytometry. In FIG. 7. Hela cells were blocked at M phase by Nocodazole (Noc.; FIG. 7A), the G1/S transition by mimosine (MMS; FIG. 7B), or at early S phase by Hydroxyurea (HU; FIG. 7C) and then released into fresh medium in the presence of 17beta-Deacetyltanghinin (DAT). The cells at different time points after release were analyzed by follow cytometry. Ayn. means asynchronous cells. Untreated cells and cells treated with the solvent DMSO could complete M, G1 and S phases after release (FIG. 7A). […] Similarly, cells released from the Mimosine (MMS) arrest (at the G1/S transition; FIG. 7B) or Hydroxyurea (HU) arrest (in early S phase; FIG. 7C) could not finish S phase in the presence of 17beta-Deacetyltanghinin.
In FIG. 8A, flow cytometry was performed to analyze the DNA contents in HepG2 and L-02 cells treated with 17beta-Deacetyltanghinin at various concentrations for 24 hrs. In FIG. 8B, Hela cells were treated with 17beta-Deacetyltanghinin for 24 hrs and labeled with Annexin V-Cy3 (Arm. Cy3) for 20 min. Mitoxantrone (MTX), a clinical anticancer drug that can induce apoptosis in cancer cells, was used as a positive control.

[2] = tested on: cancer cell lines (HepG2, Hep3B, HeLa, HK1, C666-1); test: cells; assay type: cell-based, human
Description: For testing the anti-proliferation activity of the compounds in human cell lines and calculation of IC50, cancer cells including HepG2, HeLa and Hep3B (4×10^5 cells/well) and normal L-02 cells (5×10^5 cells/well) were respectively seeded in 96-well plates in 100 μl of culture medium and incubated for about 12 hrs at 37° C. The cells were treated with two-fold serial dilutions of the drugs for 48 hrs. Medium was removed and 100 μl of culture medium containing 1 μM WST-1 (water soluble tetrazolium-1) were added to each well. The cells were incubated for 2 hrs, and absorbance at 405 nm (reference at 630 nm) was then measured. To construct the standard curve of the relationship between cell number and absorbance at OD405, serial dilutions of cells with known cell numbers were seeded and incubated for six hrs before being measured by the WST-1 assay. The cell viability was expressed as the ratio of the number of live cells treated with a candidate compound versus that of the DMSO-treated cells.
To further test 17beta-Deacetyltanghinin and to determine the IC50 values, besides L-02 and HepG2, Hep3B (another liver cancer cell line which is p53-negative), HeLa (cervical cancer cell line), HK1 and C666-1 (nasopharyngeal carcinoma) cells and a hTert-immortalized normal nasopharyngeal cell line (NP460) were treated by 17beta-Deacetyltanghinin for 48 hrs, and the relative cell vabilities were determined by WST-1 assay (FIG. 2B, C).

[3] = target: T1, hMcm2-hMcm6 interaction (MCM complex) (Homo sapiens, UniProt P49736+Q14566); test: Co-immunoprecipitation of MCM subunits in HeLa cell extracts; assay type: cell-based; settings: asynchronous HeLa cells, whole cell extracts
T1 construct: endogenous in cells; host or cells: HeLa
T1 sequence (P49736 2-904 limits assumed): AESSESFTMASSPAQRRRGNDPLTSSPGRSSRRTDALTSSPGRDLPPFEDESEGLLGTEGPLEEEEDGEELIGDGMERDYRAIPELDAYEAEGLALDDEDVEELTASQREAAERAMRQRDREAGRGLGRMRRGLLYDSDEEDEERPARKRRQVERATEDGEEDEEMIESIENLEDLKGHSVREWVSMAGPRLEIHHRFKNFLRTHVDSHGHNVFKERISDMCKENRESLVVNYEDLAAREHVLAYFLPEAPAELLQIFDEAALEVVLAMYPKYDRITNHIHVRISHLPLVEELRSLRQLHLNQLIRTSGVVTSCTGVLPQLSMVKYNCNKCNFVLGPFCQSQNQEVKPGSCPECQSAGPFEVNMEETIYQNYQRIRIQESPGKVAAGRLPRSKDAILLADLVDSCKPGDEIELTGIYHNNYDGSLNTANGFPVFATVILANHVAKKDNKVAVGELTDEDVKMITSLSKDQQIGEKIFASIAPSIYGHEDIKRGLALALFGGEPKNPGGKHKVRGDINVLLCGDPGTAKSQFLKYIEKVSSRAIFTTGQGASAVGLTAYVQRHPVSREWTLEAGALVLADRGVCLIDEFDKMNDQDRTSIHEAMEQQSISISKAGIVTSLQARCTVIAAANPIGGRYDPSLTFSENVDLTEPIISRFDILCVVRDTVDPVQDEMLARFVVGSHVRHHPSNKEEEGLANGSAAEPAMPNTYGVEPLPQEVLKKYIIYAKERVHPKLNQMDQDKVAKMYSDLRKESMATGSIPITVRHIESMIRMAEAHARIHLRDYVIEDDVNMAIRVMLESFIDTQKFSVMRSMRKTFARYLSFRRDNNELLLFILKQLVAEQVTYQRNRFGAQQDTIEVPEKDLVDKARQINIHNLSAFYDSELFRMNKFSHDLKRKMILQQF
T1 sequence (Q14566 whole entry): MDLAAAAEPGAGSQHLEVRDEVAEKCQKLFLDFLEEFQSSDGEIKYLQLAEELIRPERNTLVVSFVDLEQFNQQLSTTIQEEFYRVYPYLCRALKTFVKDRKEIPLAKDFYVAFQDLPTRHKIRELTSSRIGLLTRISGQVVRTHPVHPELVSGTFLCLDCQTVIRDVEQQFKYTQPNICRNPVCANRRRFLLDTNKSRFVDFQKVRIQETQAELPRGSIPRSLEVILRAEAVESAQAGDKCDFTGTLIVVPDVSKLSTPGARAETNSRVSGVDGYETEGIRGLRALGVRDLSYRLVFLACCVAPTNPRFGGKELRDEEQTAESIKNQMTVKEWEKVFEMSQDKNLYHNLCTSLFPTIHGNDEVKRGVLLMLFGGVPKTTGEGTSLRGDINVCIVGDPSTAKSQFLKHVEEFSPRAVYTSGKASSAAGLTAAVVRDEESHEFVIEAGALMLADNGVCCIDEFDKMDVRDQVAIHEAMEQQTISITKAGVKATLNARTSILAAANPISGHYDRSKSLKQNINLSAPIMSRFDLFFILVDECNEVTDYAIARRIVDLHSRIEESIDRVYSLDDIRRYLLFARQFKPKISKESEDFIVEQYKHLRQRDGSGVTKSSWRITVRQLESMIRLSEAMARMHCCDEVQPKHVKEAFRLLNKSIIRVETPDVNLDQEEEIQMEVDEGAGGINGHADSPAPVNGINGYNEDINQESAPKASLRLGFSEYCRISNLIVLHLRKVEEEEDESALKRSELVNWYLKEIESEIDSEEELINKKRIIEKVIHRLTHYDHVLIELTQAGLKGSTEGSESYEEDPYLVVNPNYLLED
Description: To test if 17beta-Deacetyltanghinin targets hMcm2 and hMcm6 proteins in human cells, possible co-immunoprecipitation (co-IP) of the two proteins was tested in human cell extracts from cells treated with 17beta-Deacetyltanghinin. In FIG. 3, asynchronous HeLa cells were treated with DMSO or 17beta-Deacetyltanghinin (DAT) (FIG. 3A), or with DMSO, 17beta-Neriifolin (NRF) or 17beta-Deacetyltanghinin diol (Diol) (FIG. 3B), and whole cell extracts were prepared and further incubated with the compound before being used for co-IP in the presence of the compound. The immunoprecipitates were then immunoblotted with anti-hMcm 6, anti-hMcm2, anti-hMcm4 and anti-hMcm7 antibodies.

[4] = tested on: HepG2 cells (hepatocellular carcinoma); settings: HepG2, 48 hrs
[5] = In vivo toxicity assessment in nude mice; settings: 5.0 mg/kg intraperitoneal for 20 days
Description: A further set of animal experiments was then conducted with a longer period of time, in which fifteen drug injections at 5.0 mg/kg were performed one week after tumor inoculation when the tumor size reached 0.05-0.1 cm^3. In FIG. 10B, drug injections and tumor size measurements were performed on the days represented by the data points, and the photographs in FIG. 10C were taken on day 20.
In FIG. 11, S refers to solvent-treated mice without tumor inoculation; S+T represents solvent-treated mice with tumor inoculation; DAT refers to 17beta-Deacetyltanghinin-treated mice without tumor inoculation; DAT+T represents 17beta-Deacetyltanghinin-treated mice with tumor inoculation; and P+T refers to Paelitaxel-treated mice with tumor inoculation. Three out of the five mice with intermediate tumor size in each group were selected for physiological parameters examination. The tumors (T) and internal organs including liver (L), heart (H) and kidney (K) were dissected from each mouse.
Furthermore, blood from each mouse was also collected for the tests of the ALT (alanine aminotransferase) and LDH (Lactate dehydrogenase) activities. […] The results of both tests were represented as the values of differently treated mice relative to the untreated ones.

What does the source list for `COC1C(O)[C@H](O[C@H]2CC[C@]3(C)C4CC[C@]5(C)[C@@H](C6=CC(=O)OC6)CC[C@]5(O)[C@@]45O[C@H]5C[C@@H]3C2)OC(C)[C@@H]1O` (stereo partly drawn) [17beta-Deacetyltanghinin, 3β-O-(3-O-methyl-6-deoxy-α-L-glucopyranosyl)-7β,8β-epoxy-14β-hydroxy-card-20(22)-enolide]?
Annexin V staining (apoptosis) ([1]; HeLa cells, 24 hrs, Annexin V-Cy3): could be stained by Annexin V; cell cycle progression after release from Nocodazole arrest ([1]; HeLa cells, flow cytometry): could complete mitosis but could not enter S phase; induction of apoptosis (sub-G1 population, flow cytometry) ([1]; cancer cells): induced apoptotic cell death in cancer cells; IC50 ([2]; Homo sapiens, 48 hrs treatment, WST-1, average over cancer cell lines): ~0.1 µg/mL; pIC50 ([2]; Homo sapiens, 48 hrs treatment, WST-1, average over cancer cell lines, printed in brackets): ~6.70; anti-proliferative (anticancer) activity, in words ([2]; WST-1 assay, 48 hrs): significantly inhibited; disruption of hMcm2-hMcm6 interaction (co-IP) [3]: disrupted the interaction between hMcm2 and hMcm6; inhibition of proliferation, direct microscopy of cell density and morphology [4]: efficiently inhibit the proliferation; appearance of organs (liver, heart, kidney) [5]: All organs looked normal; body weight loss [5]: no obvious weight loss; organ weights relative to body weights [5]: not significantly changed; blood ALT (printed ATL) or LDH level ([5]; relative to untreated mice): did not induce significant increase
